Laboratory results taken from US4760136A, “Chartreusin derivatives and salts thereof” (Ishihara Sangyo Kaisha, Ltd., priority 1984, dated 1988).

Assays:
Format in all cases: in vivo
[1] = tested on: P-388 leukemia cells; experiment: Antitumor activity: P-388 leukemia cells inoculated intraperitoneally, drug administered intravenously, BDF1 mice; details: BDF1 mice, P-388 i.p.; for T/C (%) of MST / response vs control in vivo at 40 mg/kg: dose c: 40 mg/kg × 3, i.v. on days 1, 5 and 9; for response vs control in vivo at 80 mg/kg: dose f: 80 mg/kg × 3, i.v. on days 1, 5 and 9; for response vs control in vivo at 20 mg/kg: dose b: 20 mg/kg × 3, i.v. on days 1, 5 and 9; for response vs control in vivo at 50 mg/kg: dose d: 50 mg/kg × 3, i.v. on days 1, 5 and 9
Method in brief: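 Drug dosing was intravenous on the first, fifth and ninth days after intraperitoneal inoculation of P-388 leukemia cells (1×10^6 per mouse) into BDF1 mice. Vehicles were physiological saline alone, or saline with small amounts of sodium carboxymethyl cellulose or Tween-80.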

[2] = tested on: ddY mice; experiment: Acute toxicity, intravenous (once), ddY mice; details: formulated per Preparation Example
Excerpt: (§1) In Table 7 are shown acute toxicity values (LD50, mg/kg) in ddY mice in the case of intravenously administering (once) each of the compounds of this invention in the form of preparations shown in the Preparation Examples shown in Table 7.

[3] = Acute toxicity, intravenous (once), ddY mice; details: mouse, in vivo, iv, formulated per Preparation Example
Excerpt: as §1

[4] = Mus musculus, P388, iv, read-out: T/C (%) of MST

Compound: COC1C(O)C(C)OC(OC2C(Oc3cccc4c(OC(=O)CCNC(=O)C(F)(F)F)c5c(=O)oc6ccc(C)c7c(=O)oc(c34)c5c67)OC(C)C3OC(c4ccccc4)OC32)C1O (stereo not shown) [Compound No. 41]
- T/C (%) of MST [1]: 157%
- LD50 [2]: ≥ 100 mg/kg

Compound: COC1C(O)C(C)OC(OC2C(Oc3cccc4c(OC(=O)CCNC(=O)c5ccccc5)c5c(=O)oc6ccc(C)c7c(=O)oc(c34)c5c67)OC(C)C3OC(c4ccc(Br)cc4)OC32)C1O (stereo not shown) [compound 124]
- response vs control in vivo at 80 mg/kg [1, 4]: 151%
- LD50 [2]: ≥ 80 mg/kg

Compound: COC1C(O)C(C)OC(OC2C(Oc3cccc4c(OC(=O)C5CCCCC5NC(=O)C(F)(F)F)c5c(=O)oc6ccc(C)c7c(=O)oc(c34)c5c67)OC(C)C3OC(c4cccc(F)c4)OC32)C1O (single isomer, unassigned) [Compound No. 117, 6-O-(N-Trifluoroacetyl-2-Amino-Cyclohexanecarbonyl)-3',4'-O-(m-Fluorobenzylidene)-Chartreusin]
- response vs control in vivo at 40 mg/kg [1, 4]: 135%
- LD50 [2]: ≥ 30 mg/kg

Compound: COC1C(O)C(C)OC(OC2C(Oc3cccc4c(OC(=O)CCN)c5c(=O)oc6ccc(C)c7c(=O)oc(c34)c5c67)OC(C)C3OC(c4ccccc4)OC32)C1O (stereo not shown) [Compound No. 17]
- response vs control in vivo at 20 mg/kg [1, 4]: 206%
- T/C (%) of MST [1]: 241%
- LD50 [2]: ≥ 40 mg/kg

Compound: COC1C(O)C(C)OC(OC2C(Oc3cccc4c(OC(=O)CN(C)C(=O)C(F)(F)F)c5c(=O)oc6ccc(C)c7c(=O)oc(c34)c5c67)OC(C)C3OC(c4ccccc4)OC32)C1O (stereo not shown) [compound 67]
- response vs control in vivo at 80 mg/kg [1, 4]: 188%
- LD50 [2]: ≥ 60 mg/kg

Compound: COC1C(O)C(C)OC(OC2C(Oc3cccc4c(OC(=O)CCNC=O)c5c(=O)oc6ccc(C)c7c(=O)oc(c34)c5c67)OC(C)C3OC(c4ccccc4)OC32)C1O (stereo not shown) [Compound No. 40]
- response vs control in vivo at 80 mg/kg [1, 4]: 205%
- LD50 [2]: ≥ 100 mg/kg

Compound: COC1C(O)C(C)OC(OC2C(Oc3cccc4c(OC(=O)CC(C)C)c5c(=O)oc6ccc(C)c7c(=O)oc(c34)c5c67)OC(C)C3OC(c4ccccc4)OC32)C1O (stereo not shown) [compound 227]
- response vs control in vivo at 80 mg/kg [1, 4]: 143%
- LD50 [2]: ≥ 80 mg/kg

Compound: CCCC(=O)Oc1c2cccc(OC3OC(C)C4OC(c5ccccc5)OC4C3OC3OC(C)C(O)C(OC)C3O)c2c2oc(=O)c3c(C)ccc4oc(=O)c1c2c43 (stereo not shown) [compound 212, 6-O-(n-butyryl)-3',4'-O-benzylidene-chartreusin]
- response vs control in vivo at 80 mg/kg [1, 4]: 153%
- LD50 [2]: ≥ 80 mg/kg

Compound: COC1C(O)C(C)OC(OC2C(Oc3cccc4c(OC(=O)CCNC(=O)C(F)(F)F)c5c(=O)oc6ccc(C)c7c(=O)oc(c34)c5c67)OC(C)C3OC(c4ccccc4)OC32)C1O (stereo not drawn) [Compound No. 28, 6-O-(N-Trifluoroacetyl-β-Alanyl)-3',4'-O-Benzylidene-Chartreusin]
- response vs control in vivo at 80 mg/kg [1, 4]: 193%
- response vs control in vivo at 120 mg/kg ([1]; Mus musculus, P388, iv, dose h: 120 mg/kg × 3, i.v. on days 1, 5 and 9, read-out: T/C (%) of MST): 227%
- LD50 [2]: ≥ 120 mg/kg

Compound: COC1C(O)C(C)OC(OC2C(Oc3cccc4c(OC(=O)CC(C)NC(=O)C(F)(F)F)c5c(=O)oc6ccc(C)c7c(=O)oc(c34)c5c67)OC(C)C3OC(c4ccccc4)OC32)C1O (stereo not shown) [compound 66]
- response vs control in vivo at 80 mg/kg [1, 4]: 171%
- LD50 [2]: ≥ 60 mg/kg

Compound: COC1C(O)C(C)OC(OC2C(Oc3cccc4c(OC(=O)CCNC=O)c5c(=O)oc6ccc(C)c7c(=O)oc(c34)c5c67)OC(C)C3OC(c4ccsc4)OC32)C1O (stereo not shown) [compound 89]
- response vs control in vivo at 80 mg/kg [1, 4]: 173%
- LD50 [2]: ≥ 80 mg/kg

Compound: COC1C(O)C(C)OC(OC2C(Oc3cccc4c(OC(=O)CCCCCNC(=O)OCc5ccccc5)c5c(=O)oc6ccc(C)c7c(=O)oc(c34)c5c67)OC(C)C3OC(c4ccccc4)OC32)C1O (stereo not shown) [compound 110]
- response vs control in vivo at 40 mg/kg [1, 4]: 154%
- LD50 [2]: ≥ 60 mg/kg

Compound: COC1C(O)C(C)OC(OC2C(Oc3cccc4c(OC(=O)C(C)CNC(=O)C(F)(F)F)c5c(=O)oc6ccc(C)c7c(=O)oc(c34)c5c67)OC(C)C3OC(c4cccc(F)c4)OC32)C1O (stereo not shown) [compound 68]
- response vs control in vivo at 40 mg/kg [1, 4]: 148%
- response vs control in vivo at 80 mg/kg [1, 4]: 210%
- LD50 [2]: ≥ 80 mg/kg

Compound: COC1C(O)C(C)OC(OC2C(Oc3cccc4c(OC(=O)CCNC(C)=O)c5c(=O)oc6ccc(C)c7c(=O)oc(c34)c5c67)OC(C)C3OC(c4ccccc4)OC32)C1O (stereo not shown) [Compound No. 29]
- response vs control in vivo at 40 mg/kg [1, 4]: 173%
- response vs control in vivo at 80 mg/kg [1, 4]: 221%
- LD50 [2]: ≥ 80 mg/kg

Compound: C=CCCC(=O)Oc1c2cccc(O[C@@H]3O[C@H](C)[C@@H]4OC(c5ccccc5)O[C@@H]4[C@H]3O[C@H]3O[C@H](C)[C@H](O)[C@H](OC)[C@H]3O)c2c2oc(=O)c3c(C)ccc4oc(=O)c1c2c43 (stereo partly shown) [compound 213]
- response vs control in vivo at 80 mg/kg [1, 4]: 160%
- LD50 [2]: ≥ 80 mg/kg

Compound: CCC1OC2C(C)OC(Oc3cccc4c(OC(=O)CCNC(=O)C(F)(F)F)c5c(=O)oc6ccc(C)c7c(=O)oc(c34)c5c67)C(OC3OC(C)C(O)C(OC)C3O)C2O1 (stereo not shown) [compound 100]
- response vs control in vivo at 80 mg/kg [1, 4]: 157%
- LD50 [3]: ≥ 180 mg/kg

Compound: COC1C(O)C(C)OC(OC2C(Oc3cccc4c(OC(=O)CCNC=O)c5c(=O)oc6ccc(C)c7c(=O)oc(c34)c5c67)OC(C)C3OC(C)(C)OC32)C1O (stereo not drawn) [Compound No. 48, 6-O-(N-formyl-β-alanyl)-3',4'-O-isopropylidene-chartreusin]
- response vs control in vivo at 80 mg/kg [1, 4]: 172%
- LD50 [3]: ≥ 120 mg/kg

Compound: CO[C@H]1[C@@H](O)[C@@H](C)O[C@H](O[C@H]2[C@H](Oc3cccc4c(OC(=O)c5ccc(Cl)cc5Cl)c5c(=O)oc6ccc(C)c7c(=O)oc(c34)c5c67)O[C@H](C)[C@@H]3OC(C)(C)O[C@@H]32)[C@@H]1O [Compound No. 180]
- response vs control in vivo at 40 mg/kg [1, 4]: 145%
- response vs control in vivo at 80 mg/kg [1, 4]: 208%
- LD50 [3]: ≥ 80 mg/kg

Compound: COC1C(O)C(C)OC(OC2C(Oc3cccc4c(OC(=O)C(CC[S+](C)[O-])NC(=O)OCc5ccccc5)c5c(=O)oc6ccc(C)c7c(=O)oc(c34)c5c67)OC(C)C3OC(c4ccccc4)OC32)C1O (stereo not shown) [Compound No. 79, 6-O-(N-Carbobenzyloxy-S-Oxomethionyl)-3',4'-O-Benzylidene-Chartreusin]
- response vs control in vivo at 40 mg/kg [1, 4]: 179%
- LD50 [3]: ≥ 40 mg/kg

Compound: CO[C@H]1[C@@H](O)[C@@H](C)O[C@H](O[C@H]2[C@H](Oc3cccc4c(OC(=O)CCCl)c5c(=O)oc6ccc(C)c7c(=O)oc(c34)c5c67)O[C@H](C)[C@@H]3OC(c4ccccc4F)O[C@@H]32)[C@@H]1O (stereo partly shown) [compound 210]
- response vs control in vivo at 40 mg/kg [1, 4]: 186%
- LD50 [3]: ≥ 60 mg/kg

Compound: CO[C@H]1[C@@H](O)[C@@H](C)O[C@H](O[C@H]2[C@H](Oc3cccc4c(OC(=O)CCCCl)c5c(=O)oc6ccc(C)c7c(=O)oc(c34)c5c67)O[C@H](C)[C@@H]3OC(c4ccccc4)O[C@@H]32)[C@@H]1O (stereo partly shown) [compound 214]
- response vs control in vivo at 40 mg/kg [1, 4]: 130%
- response vs control in vivo at 80 mg/kg [1, 4]: 198%
- LD50 [3]: ≥ 80 mg/kg

Compound: COC1C(O)C(C)OC(OC2C(Oc3cccc4c(OC(=O)CC(C)CC(C)(C)C)c5c(=O)oc6ccc(C)c7c(=O)oc(c34)c5c67)OC(C)C3OC(c4ccccc4)OC32)C1O (stereo not shown) [Compound No. 236, 6-O-(3,5,5-Trimethyl-n-Hexanoyl)-3',4'-O-Benzylidene-Chartreusin]
- response vs control in vivo at 40 mg/kg [1, 4]: 145%
- LD50 [3]: ≥ 80 mg/kg

Compound: COC1C(O)C(C)OC(OC2C(Oc3cccc4c(OC(=O)CCCCCNC(=O)OCc5ccccc5)c5c(=O)oc6ccc(C)c7c(=O)oc(c34)c5c67)OC(C)C3OC(C)(C)OC32)C1O (stereo not shown) [Compound No. 111, 6-O-(N-Carbobenzyloxy-6-Amino-n-Hexanoyl)-3',4'-O-Isopropylidene-Chartreusin]
- response vs control in vivo at 60 mg/kg ([1]; Mus musculus, P388, iv, dose e: 60 mg/kg × 3, i.v. on days 1, 5 and 9, read-out: T/C (%) of MST): 175%
- LD50 [3]: ≥ 100 mg/kg

Compound: COC1C(O)C(C)OC(OC2C(Oc3cccc4c(OC(=O)CNC(=O)c5ccccc5)c5c(=O)oc6ccc(C)c7c(=O)oc(c34)c5c67)OC(C)C3OC(C)(C)OC32)C1O (stereo not shown) [compound 88]
- response vs control in vivo at 50 mg/kg [1, 4]: 157%
- LD50 [3]: ≥ 100 mg/kg

Compound: CCCC(=O)Oc1c2cccc(OC3OC(C)C4OC(c5ccccc5)OC4C3OC3OC(C)C(O)C(OC)C3O)c2c2oc(=O)c3c(C)ccc4oc(=O)c1c2c43 (stereo not shown) [Compound No. 191, 6-O-(n-Butyryl)-3',4'-O-Benzylidene-Chartreusin]
- response vs control in vivo at 20 mg/kg [1, 4]: 155%
- LD50 [3]: ≥ 40 mg/kg

Compound: COc1ccc(C(=O)Oc2c3cccc(O[C@@H]4O[C@H](C)[C@@H]5OC(C)(C)O[C@@H]5[C@H]4O[C@H]4O[C@H](C)[C@H](O)[C@H](OC)[C@H]4O)c3c3oc(=O)c4c(C)ccc5oc(=O)c2c3c54)cc1 [compound 208]
- response vs control in vivo at 40 mg/kg [1, 4]: 136%
- response vs control in vivo at 80 mg/kg [1, 4]: 192%
- LD50 [3]: ≥ 80 mg/kg

Compound: COC1C(O)C(C)OC(OC2C(Oc3cccc4c(OC(=O)CCCl)c5c(=O)oc6ccc(C)c7c(=O)oc(c34)c5c67)OC(C)C3OC(c4ccccc4)OC32)C1O (stereo not shown) [Compound No. 164]
- response vs control in vivo at 20 mg/kg [1, 4]: 198%
- LD50 [3]: ≥ 40 mg/kg

Compound: COC1C(O)C(C)OC(OC2C(Oc3cccc4c(OC(=O)C(CCSC)NC(=O)OCc5ccccc5)c5c(=O)oc6ccc(C)c7c(=O)oc(c34)c5c67)OC(C)C3OC(C)(C)OC32)C1O (stereo not shown) [Compound No. 63]
- response vs control in vivo at 50 mg/kg [1, 4]: 150%
- response vs control in vivo at 100 mg/kg ([1]; Mus musculus, P388, iv, dose g: 100 mg/kg × 3, i.v. on days 1, 5 and 9, read-out: T/C (%) of MST): 205%
- LD50 [3]: ≥ 120 mg/kg
